This note sets out measurements from patent publication US8288424B2, “Substituted tetrahydroimidazopyridine compounds and the use thereof in the treatment of pain and other conditions” (Gruenenthal GmbH, priority 2008, dated 2012).

The target of the first assay is T1, KCNQ2/3 channels (Homo sapiens, UniProt O43525+O43526).
T1 construct: expressed in transfected cells; host or cells: CHO-K1
In words: Fluorescence assay using a voltage-sensitive dye. The following applies: 10 μmol test substance; CHO-K1 cells expressing KCNQ2/3 channels; agonistic activity; read-out: % Stimulation [10 μmol] Average. It counts as cell-based. The essentials: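 CHO-K1 cells expressing KCNQ2/3 loaded with membrane-potential dye in ES buffer (1 mM KCl, pH 7.4), compound 30 min at room temperature, then KCl added (final 92 mM). Fluorescence (ex 525/em 560 nm) read before (F1) and at peak after (F2) KCl; agonism from F2/F1 change versus buffer controls, EC50 calculated.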
As to `Cc1cc(C2CCc3nc(C(=O)N4CCC(C(c5ccccc5)c5ccccc5)CC4)cn3C2)ccc1F` (stereo not shown) [Compound 67, (4-Benzhydrylpiperidin-1-yl)(6-(4-fluoro-3-methylphenyl)-5,6,7,8-tetrahydroimidazo[1,2-a]pyridin-2-yl)methanone], the activation at 10 µM came to 33.3%.

Take `O=C(c1cn2c(n1)CCC(c1ccc(F)cc1)C2)N1CCC(Cc2ccccc2)CC1` (stereo not shown) [Compound 41, (4-Benzylpiperidin-1-yl)(6-(4-fluorophenyl)-5,6,7,8-tetrahydroimidazo[1,2-a]pyridin-2-yl)methanone]: the activation at 10 µM turned out to be 29.4%.

As for `Cc1cc(C2CCc3nc(C(=O)NC(C)c4ccccc4)cn3C2)ccc1F` (stereo not shown) [Compound 14, 6-(4-Fluoro-3-methylphenyl)-N-(1-phenylethyl)-5,6,7,8-tetrahydroimidazo[1,2-a]pyridine-2-carboxamide], the activation at 10 µM came to 24.7%.

As to `Cc1cc(C2CCc3nc(C(=O)N4CCN(c5ccccc5F)CC4)cn3C2)ccc1F` (stereo not shown) [Compound 13, (6-(4-Fluoro-3-methylphenyl)-5,6,7,8-tetrahydroimidazo[1,2-a]pyridin-2-yl)(4-(2-fluorophenyl)piperazin-1-yl)methanone], the activation at 10 µM was found to be 18%.

For the compound `O=C(c1cn2c(n1)CCC(c1cccc(C(F)(F)F)c1)C2)N1CCCC1` (stereo not shown) [Compound 31, Pyrrolidin-1-yl(6-(3-(trifluoromethyl)phenyl)-5,6,7,8-tetrahydroimidazo[1,2-a]pyridin-2-yl)methanone], the activation at 10 µM came to 17.6%.

On to `COc1ccc(C2CCc3nc(C(=O)N4CCCC4)cn3C2)c(OC)c1` (stereo not shown) [Compound 33, (6-(2,4-Dimethoxyphenyl)-5,6,7,8-tetrahydroimidazo[1,2-a]pyridin-2-yl)(pyrrolidin-1-yl)methanone], for which the activation at 10 µM stood at 24.5%.

Take `O=C(c1cn2c(n1)CCC(c1ccc(F)cc1)C2)N1CCN(c2cccc(C(F)(F)F)c2)CC1` (stereo not shown) [Compound 47, (6-(4-Fluorophenyl)-5,6,7,8-tetrahydroimidazo[1,2-a]pyridin-2-yl)(4-(3-(trifluoromethyl)phenyl)piperazin-1-yl)methanone]: the activation at 10 µM amounted to 63.5%.

Regarding `COc1c(C)cc(C2CCc3nc(C(=O)NCc4ccccc4)cn3C2)cc1C` (stereo not shown) [Compound 5, N-Benzyl-6-(4-methoxy-3,5-dimethylphenyl)-5,6,7,8-tetrahydroimidazo[1,2-a]pyridine-2-carboxamide], the activation at 10 µM worked out at 15.5%.

For `Cc1cc(C2CCc3nc(C(=O)N4CCN(c5ccc(F)cc5)CC4)cn3C2)ccc1F` (stereo not shown) [Compound 63, (6-(4-Fluoro-3-methylphenyl)-5,6,7,8-tetrahydroimidazo[1,2-a]pyridin-2-yl)(4-(4-fluorophenyl)piperazin-1-yl)methanone], the activation at 10 µM came out at 96.7%.

The assay is the same for the next values; noted with them: CHO-K1 cells expressing KCNQ2/3 channels; agonistic activity.
A word on the EC50: it is the concentration giving half of the maximal effect. A high value points to a need for much substance. Compound `O=C(c1cn2c(n1)CCC(c1ccc(Oc3ccccc3)cc1)C2)N1CCCC1` (stereo not shown) [Compound 25, (6-(4-Phenoxyphenyl)-5,6,7,8-tetrahydroimidazo[1,2-a]pyridin-2-yl)(pyrrolidin-1-yl)methanone] showed an EC50 of 2.33 µM.

The compound `COc1c(C)cc(C2CCc3nc(C(=O)N4CCN(c5cccc(C(F)(F)F)c5)CC4)cn3C2)cc1C` (stereo not shown) [Compound 54, (6-(4-Methoxy-3,5-dimethylphenyl)-5,6,7,8-tetrahydroimidazo[1,2-a]pyridin-2-yl)(4-(3-(trifluoromethyl)phenyl)piperazin-1-yl)methanone] yielded an EC50 of 2.45 µM.

As for `O=C(c1cn2c(n1)CCC(c1ccccc1)C2)N1CCN(c2cccc(C(F)(F)F)c2)CC1` (stereo not shown) [Compound 53, (6-Phenyl-5,6,7,8-tetrahydroimidazo[1,2-a]pyridin-2-yl)(4-(3-(trifluoromethyl)phenyl)piperazin-1-yl)methanone], it took 8.34 µM to reach a half-maximal effect (EC50).

As to `COc1ccc(CCNC(=O)c2cn3c(n2)CCC(c2ccc(Oc4ccccc4)cc2)C3)cc1OC` (stereo not shown) [Compound 27, N-(3,4-Dimethoxyphenethyl)-6-(4-phenoxyphenyl)-5,6,7,8-tetrahydroimidazo[1,2-a]pyridine-2-carboxamide], the midpoint of the response, the EC50, lay at 6.35 µM.
